According to EPA's ToxValDB 9.5 (doi:10.2903/j.efsa.2007.111r):
In brackets after ≈: the same amount, converted by molar mass.

Legend:
Colinus virginianus = details: acute; oral; mortality
Bibionidae = details: chronic/long-term; duration: 25 days; development
Daphnia magna = details: chronic/long-term; duration: 21 days; reproduction
Apis mellifera = details: acute; duration: 48 hours; dermal; mortality
Tagia sp. = details: acute; duration: 14 days; mortality

## CCCN(CCC)C(=O)SCc1ccccc1 [Prosulfocarb]
Colinus virginianus
  LD50: > 2250 mg/kg-day
Bibionidae
  NOEC: 1.25 mg/L
Daphnia magna
  NOEC: 0.045 mg/L
Apis mellifera
  LD50: > 80 µg/piece
Tagia sp.
  LC50: 144 mg/kg
Anas platyrhynchos; reproductive
  NOEL: 131 mg/kg-day
Anas platyrhynchos; short-term, oral, feed, mortality
  LD50: > 1510 mg/kg-day
Rattus norvegicus; acute, oral, mortality
  LD50: 1820 mg/kg-day
Rattus norvegicus; chronic, duration: 2 years, oral, body weight
  NOAEL: 0.5 mg/kg-day
Rattus norvegicus; reproduction developmental, body weight
  NOAEL: 0.5 mg/kg-day
Rattus norvegicus; reproduction developmental, clinical signs
  NOAEL: 10 mg/kg-day
Rattus norvegicus; reproduction developmental, reproduction
  NOAEL: > 50 mg/kg-day
Rattus norvegicus; subchronic, duration: 90 days, oral, body weight
  NOAEL: 1 mg/kg-day
Oncorhynchus mykiss; acute, duration: 96 hours, mortality
  LC50: 0.84 µg/mL (≈ 3.34 µM)
Oncorhynchus mykiss; chronic/long-term, duration: 21 days, other
  NOEC: 0.31 mg/L
